Experimental data taken from PubChem BioAssay (NCI).
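Five concentrations, 48 hours, 96-well plates. GI50: concentration for 50% inhibition of growth. TGI denotes the concentration required for complete inhibition of growth.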

Assays:
Experiment in all cases: NCI tumour cell line growth inhibition, 48 h
786-0 renal = system: 786-0 renal
A498 renal = system: A498 renal
A549 NSCLC = system: A549 NSCLC
ACHN renal = system: ACHN renal
BT-549 breast = system: BT-549 breast
CAKI-1 renal = system: CAKI-1 renal
CCRF-CEM leukemia = system: CCRF-CEM leukemia
COLO 205 colon = system: COLO 205 colon
DU-145 prostate = system: DU-145 prostate
EKVX NSCLC = system: EKVX NSCLC
HCC-2998 colon = system: HCC-2998 colon
HCT-116 colon = system: HCT-116 colon
HCT-15 colon = system: HCT-15 colon
HL-60(TB) leukemia = system: HL-60(TB) leukemia
HOP-62 NSCLC = system: HOP-62 NSCLC
HOP-92 NSCLC = system: HOP-92 NSCLC
HS 578T breast = system: HS 578T breast
HT29 colon = system: HT29 colon
IGROV1 ovarian = system: IGROV1 ovarian
K-562 leukemia = system: K-562 leukemia
KM12 colon = system: KM12 colon
LOX IMVI melanoma = system: LOX IMVI melanoma
M14 melanoma = system: M14 melanoma
MALME-3M melanoma = system: MALME-3M melanoma
MCF7 breast = system: MCF7 breast
MDA-MB-231 breast = system: MDA-MB-231 breast
MDA-MB-435 = system: MDA-MB-435
MOLT-4 leukemia = system: MOLT-4 leukemia
NCI-H226 lung = system: NCI-H226 lung
NCI-H23 lung = system: NCI-H23 lung
NCI-H460 lung = system: NCI-H460 lung
NCI-H522 lung = system: NCI-H522 lung
NCI/ADR-RES ovarian = system: NCI/ADR-RES ovarian
OVCAR-3 ovarian = system: OVCAR-3 ovarian
OVCAR-4 ovarian = system: OVCAR-4 ovarian
OVCAR-5 ovarian = system: OVCAR-5 ovarian
OVCAR-8 ovarian = system: OVCAR-8 ovarian
PC-3 prostate = system: PC-3 prostate
RPMI-8226 leukemia = system: RPMI-8226 leukemia
RXF 393 renal = system: RXF 393 renal
SF-268 CNS = system: SF-268 CNS
SF-295 CNS = system: SF-295 CNS
SF-539 CNS = system: SF-539 CNS
SK-MEL-2 melanoma = system: SK-MEL-2 melanoma
SK-MEL-28 melanoma = system: SK-MEL-28 melanoma
SK-MEL-5 melanoma = system: SK-MEL-5 melanoma
SK-OV-3 ovarian = system: SK-OV-3 ovarian
SN12C renal = system: SN12C renal
SNB-19 CNS = system: SNB-19 CNS
SNB-75 CNS = system: SNB-75 CNS
SR leukemia = system: SR leukemia
SW-620 colon = system: SW-620 colon
T-47D breast = system: T-47D breast
TK-10 renal = system: TK-10 renal
U251 CNS = system: U251 CNS
UACC-257 melanoma = system: UACC-257 melanoma
UACC-62 melanoma = system: UACC-62 melanoma
UO-31 renal = system: UO-31 renal

## O=C1/C(=C/c2ccc(O)cc2)CSc2ccc(Cl)cc21
786-0 renal
  GI50: 17.2 µM
  TGI: 49.8 µM
A498 renal
  GI50: 15 µM
  TGI: 28.4 µM
A549 NSCLC
  GI50: 32 µM
  TGI: > 100 µM
ACHN renal
  GI50: 11.9 µM
  TGI: 24.3 µM
BT-549 breast
  GI50: 15.7 µM
  TGI: 38.3 µM
CAKI-1 renal
  GI50: 21.2 µM
  TGI: 52 µM
CCRF-CEM leukemia
  GI50: 0.58 µM
  TGI: > 100 µM
COLO 205 colon
  GI50: 15.6 µM
  TGI: 29 µM
DU-145 prostate
  GI50: 12.4 µM
  TGI: 27.2 µM
EKVX NSCLC
  GI50: 16.4 µM
  TGI: 32.4 µM
HCC-2998 colon
  GI50: 13.6 µM
  TGI: 30.1 µM
HCT-116 colon
  GI50: 7.08 µM
  TGI: > 100 µM
HCT-15 colon
  GI50: 8.31 µM
  TGI: 21.9 µM
HL-60(TB) leukemia
  GI50: 2.27 µM
  TGI: > 100 µM
HOP-62 NSCLC
  GI50: 14.2 µM
  TGI: 45 µM
HOP-92 NSCLC
  GI50: 21.7 µM
  TGI: > 100 µM
HS 578T breast
  GI50: 2.9 µM
  TGI: 7.36 µM
HT29 colon
  GI50: 16.5 µM
  TGI: 89.7 µM
IGROV1 ovarian
  GI50: 7.58 µM
  TGI: 51 µM
K-562 leukemia
  GI50: 2.36 µM
  TGI: > 100 µM
KM12 colon
  GI50: 3.59 µM
  TGI: 15.7 µM
LOX IMVI melanoma
  GI50: 2.63 µM
  TGI: 8.75 µM
M14 melanoma
  GI50: 10 µM
  TGI: 62.2 µM
MALME-3M melanoma
  GI50: 16.6 µM
  TGI: 38 µM
MCF7 breast
  GI50: 0.651 µM
  TGI: 11 µM
MDA-MB-231 breast
  GI50: 17.8 µM
  TGI: 44.3 µM
MDA-MB-435
  GI50: 4.54 µM
  TGI: 25.3 µM
MOLT-4 leukemia
  GI50: 4.09 µM
  TGI: > 100 µM
NCI-H226 lung
  GI50: 22.1 µM
  TGI: 51.2 µM
NCI-H23 lung
  GI50: 19.3 µM
  TGI: 46 µM
NCI-H460 lung
  GI50: 17.7 µM
  TGI: 39.2 µM
NCI-H522 lung
  GI50: 3.25 µM
  TGI: 10.7 µM
NCI/ADR-RES ovarian
  GI50: 18.7 µM
  TGI: > 100 µM
OVCAR-3 ovarian
  GI50: 5.69 µM
  TGI: 19.4 µM
OVCAR-4 ovarian
  GI50: 21.7 µM
  TGI: > 100 µM
OVCAR-5 ovarian
  GI50: 19.8 µM
  TGI: 40.4 µM
OVCAR-8 ovarian
  GI50: 11.1 µM
  TGI: > 100 µM
PC-3 prostate
  GI50: 13.1 µM
  TGI: 53.8 µM
RPMI-8226 leukemia
  GI50: 3.62 µM
  TGI: > 100 µM
RXF 393 renal
  GI50: 17.9 µM
  TGI: 37.7 µM
SF-268 CNS
  GI50: 15.4 µM
  TGI: 41.3 µM
SF-295 CNS
  GI50: 18.2 µM
  TGI: 40.1 µM
SF-539 CNS
  GI50: 16.8 µM
  TGI: 31.4 µM
SK-MEL-2 melanoma
  GI50: 19.1 µM
  TGI: 51.8 µM
SK-MEL-28 melanoma
  GI50: 4.04 µM
  TGI: 15.8 µM
SK-MEL-5 melanoma
  GI50: 12.3 µM
  TGI: 24.7 µM
SK-OV-3 ovarian
  GI50: 23 µM
  TGI: 44.6 µM
SN12C renal
  GI50: 14 µM
  TGI: 46.9 µM
SNB-19 CNS
  GI50: 14.1 µM
  TGI: 27.4 µM
SNB-75 CNS
  GI50: 18.3 µM
  TGI: 54.8 µM
SR leukemia
  GI50: 2.14 µM
  TGI: > 100 µM
SW-620 colon
  GI50: 1.99 µM
  TGI: 4.04 µM
T-47D breast
  GI50: 8.86 µM
  TGI: 22.7 µM
TK-10 renal
  GI50: 15.6 µM
  TGI: 34.2 µM
U251 CNS
  GI50: 4.21 µM
  TGI: 15.8 µM
UACC-257 melanoma
  GI50: 19.1 µM
  TGI: 38.9 µM
UACC-62 melanoma
  GI50: 12.2 µM
  TGI: 26.2 µM
UO-31 renal
  GI50: 12.4 µM
  TGI: 29.1 µM
